From paper PMC4488747, “Inhibition of P-glycoprotein Gene Expression and Function Enhances Triptolide-induced Hepatotoxicity in Mice” (Scientific Reports, 2015)
Like-named read-outs stand apart in the source and are kept apart here.

How the values were obtained:
[1] = Hepatic concentrations of triptolide in mice; assay type: in vivo; settings: mice liver
Description: (§1) For TP plasma kinetic study and toxicological evaluation, mice were divided into four groups (n = 5 each) to collect blood and tissue samples: (1) normal + saline group; (2) 1.0 mg/kg TP + 15 nmol NC-siRNA group; (3) 1.0 mg/kg TP + 15 nmol mdr1a-siRNA group; (4) 1.0 mg/kg TP + 10 mg/kg tariquidar group. In order to avoid the complication caused by drug absorption or possible intestinal first-pass effect, TP and the inhibitor were intravenously administrated to mice. The siRNA group was intravenously injected with NC-siRNA or mdr1a-siRNA 2 days before TP dose. For TP + tariquidar group, the mice were received an intravenous tariquidar dose 20 min prior to the TP injection. Blood samples were collected at 2, 5, 10, 15, 30, 60 and 120 min after TP dosing. To assess the liver exposure of TP, liver tissue samples were collected from another set of mice at 5, 30, 60 and 120 min after dosing. Three TP groups were design for this experiment, including TP + NC-siRNA group, TP + mdr1a-siRNA group and TP + tariquidar group. The liver tissue samples were weighed and then homogenized in 10 volume (w:v) of ice-cold saline. The concentrations of TP in plasma and liver tissue were measured by a validated LC-MS/MS method. Prior to the above animal study, a preliminary experiment was performed to assess the possible differences in liver P-gp protein expression (Figure S1) and TP plasma kinetics between NC-siRNA treated mice and normal mice (with saline) (Figure S2 and supplemental Table 1). […] Therefore, NC-siRNA group was used as the control in the following animal study.
(§2) The TP in plasma and tissue samples was quantitatively analyzed by a published LC-MS/MS method. The method was slightly modified and validated for analysis of plasma and liver tissue samples. Plasma and tissue homogenate were pretreated with 3-fold volume of methanol-acetonitrile (1:1, v/v) containing 20 ng/ml propranolol to precipitate proteins, and then centrifuged at 4°C, 14,000 g for 10 min. The supernatant (10 μl) was injected into LC-MS/MS for analysis. An Aglient 6410B triple quadrupole mass spectrometer equipped with Agilent1290 Infinity UHPLC system (Agilent Technologies, Santa Clara, CA) was used. TP and propranolol (internal standard, IS) were eluted from an Agilent C18 column (dp = 3.5 μm, 2.1 × 50 mm, Agilent, MA) using a mobile phase gradient (A: water with 0.1% formic acid and 2.5 mM ammonium formate, B: acetonitrile with 0.1% formic acid). The gradient was run as: 0–2.5 min hold at 95% B; 2.5–3 min, a linear gradient to 10% B; 3–4 min hold at 10% B. Flow rate was 0.2 ml/min. TP and propranolol were detected in positive ion mode using single reaction monitoring: TP, m/z 378.1/360.1, IS, m/z 260.0/116.0. Under the above optimized condition, no significant endogenous interferences were detected at the peak regions for TP and IS in all the biological specimens. The calibration curves of TP were linear (r^2 > 0.99) over the concentration range of 1–1000 ng/ml. The lower limit of quantification was at 1 ng/ml. The intra and inter-day precisions (RSD) were all below 11% and the assay accuracies (RE) were in the range from 87% to 113%. The recovery was above 80% for both plasma and tissue samples.

[2] = Triptolide plasma toxicokinetics in mice; assay type: in vivo; settings: TP 1.0 mg/kg iv
Description: as §1, §2
Toxicokinetic parameters, including area under the plasma concentration-time curve (AUC), volume of distribution (Vd), clearance (CL), mean residence time (MRT) and terminal elimination half-life (t1/2), were calculated by non-compartmental analysis using WinNonlin 5.2 software (Pharsight Corporation, CA, USA). All the data were expressed as mean ± SD. Differences between groups were compared by Student’s t-test for analysis of unpaired data or one-way ANOVA. Statistical significance was accepted at P < 0.05.

[3] = C57, mouse, iv, 1 mg/kg, 15 nmol NC-siRNA iv 2 days before (control)
[4] = C57, mouse, iv, 1 mg/kg, 15 nmol mdr1a-siRNA iv 2 days before
[5] = C57, mouse, iv, 1 mg/kg, with tariquidar 10 mg/kg iv, 20 min before TP, tariquidar 10 mg/kg iv 20 min prior
[6] = 15 nmol NC-siRNA iv 2 days before (control)
[7] = 15 nmol mdr1a-siRNA iv 2 days before

For `CC(C)[C@]12O[C@H]1[C@@H]1O[C@]13[C@]1(O[C@H]1C[C@H]1C4=C(CC[C@@]13C)C(=O)OC4)[C@@H]2O` [TP, Triptolide], the “Hepatic concentration of TP” value ([1]; 5 min after TP 1.0 mg/kg iv, NC-siRNA pretreatment (control)) was 1953.3 ± 786.7 ng/g protein, the “Hepatic concentration of TP” value ([1]; 5 min after TP 1.0 mg/kg iv, mdr1a-siRNA iv 2 days before) was 4278.0 ± 653.1 ng/g protein and the “Hepatic concentration of TP” value ([1]; 5 min after TP 1.0 mg/kg iv, tariquidar 10 mg/kg iv 20 min prior) was 2857.3 ± 909.4 ng/g protein. The “Hepatic concentration of TP” value ([1]; 30 min after TP 1.0 mg/kg iv, NC-siRNA pretreatment (control)) was 394.9 ± 41.2 ng/g protein, the “Hepatic concentration of TP” value ([1]; 30 min after TP 1.0 mg/kg iv, mdr1a-siRNA iv 2 days before) was 950.8 ± 232.1 ng/g protein and the “Hepatic concentration of TP” value ([1]; 30 min after TP 1.0 mg/kg iv, tariquidar 10 mg/kg iv 20 min prior) was 683.9 ± 61.3 ng/g protein. The “Hepatic concentration of TP” value ([1]; 60 min after TP 1.0 mg/kg iv, NC-siRNA pretreatment (control)) was 170.6 ± 66.3 ng/g protein, the “Hepatic concentration of TP” value ([1]; 60 min after TP 1.0 mg/kg iv, mdr1a-siRNA iv 2 days before) was 326.2 ± 22.4 ng/g protein and the “Hepatic concentration of TP” value ([1]; 60 min after TP 1.0 mg/kg iv, tariquidar 10 mg/kg iv 20 min prior) was 302.8 ± 22.7 ng/g protein. For the same compound, the “Hepatic concentration of TP” value ([1]; 120 min after TP 1.0 mg/kg iv, NC-siRNA pretreatment (control)) was 37.4 ± 12.2 ng/g protein, the “Hepatic concentration of TP” value ([1]; 120 min after TP 1.0 mg/kg iv, mdr1a-siRNA iv 2 days before) was 84.8 ± 14.5 ng/g protein and the “Hepatic concentration of TP” value ([1]; 120 min after TP 1.0 mg/kg iv, tariquidar 10 mg/kg iv 20 min prior) was 36.1 ± 14.4 ng/g protein. The MRT ([2]; C57, mouse, 15 nmol NC-siRNA iv 2 days before (control)) was 20.4 ± 7.8 min, the AUC(0-t) [2, 3] was 104 ± 9.6 ng·h/mL and the Vd [2, 3] was 4.8 ± 1.1 L/kg. It also gave a half-life [2, 3] of 20.4 ± 8.4 min, a Cmax ([2]; C57, mouse, iv, 1 mg/kg, 15 nmol NC-siRNA iv 2 days before (control), read-out: Cmax) of 413 ± 74 ng/mL and an AUC(0-t) [2, 4] of 154 ± 30.2 ng·h/mL. It also gave a Vd [2, 4] of 3.3 ± 0.7 L/kg, a half-life [2, 4] of 29.4 ± 13.8 min and a Cmax ([2]; C57, mouse, iv, 1 mg/kg, 15 nmol mdr1a-siRNA iv 2 days before, read-out: Cmax) of 510 ± 94 ng/mL. The AUC(0-t) [2, 5] was 146 ± 24.6 ng·h/mL, the Vd [2, 5] was 3.9 ± 1.3 L/kg and the half-life [2, 5] was 29.4 ± 13.2 min. The Cmax ([2]; C57, mouse, iv, 1 mg/kg, with tariquidar 10 mg/kg iv, 20 min before TP, tariquidar 10 mg/kg iv 20 min prior, read-out: Cmax) was 472 ± 66.5 ng/mL, the CL [2, 6] was 573.84 ± 61.452 L/h/kg and the Cmax [2, 6] was 413.1 ± 74.2 ng/mL. It also gave a CL [2, 7] of 345.32 ± 72.006 L/h/kg, a Cmax [2, 7] of 509.7 ± 94.1 ng/mL and an MRT ([2]; mouse, 15 nmol mdr1a-siRNA iv 2 days before) of 30.6 ± 13.8 min. For the same compound, the MRT ([2]; mouse, with tariquidar 10 mg/kg iv, 20 min before TP, tariquidar 10 mg/kg iv 20 min prior) was 30 ± 13.2 min.
